{"source": "patent US7285567B2", "about": "“Halogenated benzamide derivatives” (Romark Laboratories, L.C., priority 2005, dated 2007)", "key": {"[1]": {"test_system": "Rotavirus: Simian Rotavirus SA-11", "assay": "microbe, parasite or virus in culture", "assay_type": "cell-based", "conditions": "Simian rotavirus SA-11, MA104 cell culture"}, "Influenza A: PR8 strain": {"test_system": "Influenza A: PR8 strain", "assay": "microbe, parasite or virus in culture", "assay_type": "cell-based, Influenza A virus"}, "[2]": {"test_system": "Paramyxovirus: Sendai virus", "assay": "microbe, parasite or virus in culture", "assay_type": "cell-based", "conditions": "Sendai virus, 37RC cell culture (Table 1)"}, "[3]": {"test_system": "Coronavirus: canine coronavirus strain S-378", "assay": "microbe, parasite or virus in culture", "assay_type": "cell-based", "conditions": "canine coronavirus strain S-378, A72 cell culture"}, "[4]": {"test_system": "Rhabdovirus: Vesicular stomatitis virus", "assay": "microbe, parasite or virus in culture", "assay_type": "cell-based"}, "[5]": {"test_system": "Herpes Simplex type 1: strain F1", "assay": "microbe, parasite or virus in culture", "assay_type": "cell-based, Herpes Simplex virus type 1", "conditions": "Herpes Simplex type 1 strain F1, HEp-2 cell culture"}, "Hepatitis B Virus (HBV)": {"test_system": "Hepatitis B Virus (HBV)", "assay": "HBV replication in 2.2.15 cell culture, 9-day assay", "assay_type": "cell-based", "conditions": "for EC50 / EC90: Hepatitis B virus, 2.2.15 cells", "description": "(§1) Anti-Hepatitis B Virus (HBV) analyses and an assessment of cytotoxicity were performed in a 9-day assay in the chronically-producing HBV human hepatoblastoma cell line, 2.2.15, as previously described (Korba, B. E. & Gerin, J. L. Use of a standardized cell culture assay to assess activities of nucleosides analogues against hepatitis B virus replication. Antivir. Res. 19, 55-70 (1992)).\n(§2) Values presented (±standard deviations [S.D.]) were calculated by linear regression analysis using data combined from all treated cultures. S.D. were calculated using the standard error of regression generated from linear regression analyses (QuattroPro™). EC50, EC90=drug concentration at which a 2-fold, or a 10-fold depression of HBV DNA (relative to the average levels in untreated cultures), respectively, was observed, CC50=drug concentration at which a 2-fold depression of neutral red dye uptake (relative to the average levels in untreated cultures) was observed, The EC90 values were used for the calculation of the Selectivity Indexes [S.I.] since at least a 3-fold depression of HBV levels is typically required to achieve statistical significance in this assay system. HBV R.I.=intracellular HBV DNA replication intermediate."}, "[6]": {"assay": "Cytotoxicity in 2.2.15 cells (neutral red dye uptake)", "assay_type": "cell-based", "conditions": "human, 2-fold depression of neutral red dye uptake", "description": "as §1, §2"}, "[7]": {"test_system": "hepatitis C virus (HCV) replicon", "assay": "HCV replication in AVA5 replicon cell culture, 3-day assay", "assay_type": "cell-based", "conditions": "AVA5 cells; for EC50: 2-fold depression of HCV RNA; for EC90: 10-fold depression of HCV RNA", "description": "(§3) Anti-Hepatitis C Virus (HCV) analyses and an assessment of cytotoxicity were performed in a 3-day assay in the HCV replicon-containing human hepatoblastoma cell line, AVA5 (Okuse, C., Rinaudo, J. A., Farrar, K., Wells, F. & Korba, B. E. Enhancement of antiviral activity against hepatitis C virus in vitro by interferon combination therapy. Antivir. Res. 65, 23-34 (2005)) as previously described (Blight, K. J., Kolykhalov, A. A. & Rice, C. M. Efficient initiation of HCV RNA replication in cell culture. Science 290, 1972-1974 (2000)).\n(§4) Values presented (±standard deviations [S.D.]) were calculated by linear regression analysis using data combined from all treated cultures. S.D. were calculated using the standard error of regression generated from the linear regression analyses (QuattroPro™). EC50, EC90=drug concentration at which a 2-fold, or a 10-fold depression of HCV RNA (relative to the average levels in untreated cultures), respectively, was observed. CC50=drug concentration at which a 2-fold depression of neutral red dye uptake was observed relative to the average levels in untreated cultures. Selectivity index=CC50/EC50."}, "[8]": {"assay": "Cytotoxicity in AVA5 cells (neutral red dye uptake)", "assay_type": "cell-based, human", "conditions": "human, 2-fold depression of neutral red dye uptake", "description": "as §3, §4"}, "B. fragilis group": {"test_system": "B. fragilis group", "assay": "CLSI agar dilution MIC, anaerobic clinical isolates", "assay_type": "cell-based", "conditions": "Bacteroides fragilis, B. fragilis gp (40 isolates), 48 h, 35° C.", "description": "(§5) Methods. Recent clinical anaerobic isolates (2000 to date) comprised 40 B. fragilis group, 26 Prevotella/Porphyromonas, 28 fusobacteria, 16 anaerobic Gram positive cocci, 14 anaerobic Gram-positive non-sporeforming rods and 18 clostridia. CLSI agar dilution MIC methodology with enriched Brucella blood agar and inocula of 1×10^5 cfu/spot was used. Plates were incubated in an anaerobic glove box at 35° C. for 48 h. Results."}, "Prevotella/Porphyromonas": {"test_system": "Prevotella/Porphyromonas", "assay": "CLSI agar dilution MIC, anaerobic clinical isolates", "assay_type": "cell-based", "conditions": "Prev/Porphy (26 isolates), 48 h", "description": "as §5"}, "fusobacteria": {"test_system": "fusobacteria", "assay": "CLSI agar dilution MIC, anaerobic clinical isolates", "assay_type": "cell-based", "conditions": "Fusobacteria (28 isolates), 48 h", "description": "as §5"}, "[9]": {"test_system": "anaerobic Gram positive cocci", "assay": "CLSI agar dilution MIC, anaerobic clinical isolates", "assay_type": "cell-based", "conditions": "Gram + cocci (16 isolates), 48 h"}, "[10]": {"test_system": "anaerobic Gram-positive non-sporeforming rods", "assay": "CLSI agar dilution MIC, anaerobic clinical isolates", "assay_type": "cell-based", "conditions": "Gram + rods (14 isolates), 48 h"}, "clostridia": {"test_system": "clostridia", "assay": "organism not typed", "assay_type": "cell-based", "conditions": "Clostridia (18 isolates), agar dilution, 48 h"}, "[11]": {"test_system": "anaerobic bacteria (all 142 isolates)", "assay": "CLSI agar dilution MIC, all anaerobic clinical isolates", "assay_type": "cell-based"}, "AVA5 cells": {"test_system": "AVA5 cells", "assay": "Cytotoxicity in AVA5 cells (neutral red dye uptake)", "assay_type": "cell-based, human", "conditions": "neutral red dye uptake, values for interferon", "description": "as §3, §4"}, "[12]": {"conditions": "All (142 isolates), agar dilution, 48 h"}}, "note": "Read-outs that look alike come from different tables or passages of the source. Marks after values point to notes of the source that are not given here.", "data": [{"compound": "Cc1cccc(C(=O)Nc2ncc(Br)s2)c1O", "note": "[RM-4819, 2-(hydroxy)-3-methyl-N-(5-bromo-2-thiazolyl)benzamide]", "values": [{"measurement": "EC50", "setting": "[1]; Rotavirus A", "result": 0.3, "unit": "µM"}, {"measurement": "SI (selectivity index) = CC50/EC50", "setting": "[1]; CC50 by MTT", "result": "> 500"}, {"measurement": "SI (selectivity index) = CC50/EC50", "setting": "Influenza A: PR8 strain; Influenza A PR8 strain, MDCK cell culture, CC50 by MTT", "result": "> 17"}, {"measurement": "EC50", "setting": "Influenza A: PR8 strain; Influenza A virus, PR8, MDCK", "result": 9.6, "unit": "µM"}, {"measurement": "EC50", "setting": "[2]; Respirovirus muris", "result": 1.3, "unit": "µM"}, {"measurement": "SI (selectivity index) = CC50/EC50", "setting": "[2]; CC50 by MTT", "result": "> 125"}, {"measurement": "EC50", "setting": "[3]; Alphacoronavirus 1, A-72", "result": 4.9, "unit": "µM"}, {"measurement": "SI (selectivity index) = CC50/EC50", "setting": "[3]; CC50 by MTT", "result": "> 33"}, {"measurement": "EC50", "setting": "[4]; MA104", "result": 1.6, "unit": "µM"}, {"measurement": "SI (selectivity index) = CC50/EC50", "setting": "[4]; MA104 cell culture, CC50 by MTT", "result": "> 100"}, {"measurement": "SI (selectivity index) = CC50/EC50", "setting": "[5]; CC50 by MTT", "result": "> 250"}, {"measurement": "EC50", "setting": "[5]; Human alphaherpesvirus 1", "result": 0.6, "unit": "µM"}, {"measurement": "EC50", "setting": "Hepatitis B Virus (HBV); 2-fold depression of HBV DNA, read-out: Extracellular Virion DNA EC50", "result": "3.5 ± 0.5", "unit": "µM"}, {"measurement": "EC90", "setting": "Hepatitis B Virus (HBV); 10-fold depression of HBV DNA, read-out: Extracellular Virion DNA EC90", "result": "9 ± 0.8", "unit": "µM"}, {"measurement": "EC50", "setting": "Hepatitis B Virus (HBV); intracellular HBV DNA replication intermediate, 2-fold depression, read-out: Intracellular HBV R.I. EC50", "result": "7.6 ± 0.9", "unit": "µM"}, {"measurement": "EC90", "setting": "Hepatitis B Virus (HBV); intracellular HBV DNA replication intermediate, 10-fold depression, read-out: Intracellular HBV R.I. EC90", "result": "22 ± 2.6", "unit": "µM"}, {"measurement": "Selectivity Index R.I.", "setting": "Hepatitis B Virus (HBV); calculated with EC90 values (CC50/EC90), HBV R.I.", "result": ">46"}, {"measurement": "Selectivity Index Virion", "setting": "Hepatitis B Virus (HBV); calculated with EC90 values (CC50/EC90), virion DNA", "result": ">111"}, {"measurement": "CC50 at 9 day", "setting": "[6]", "result": "> 1000", "unit": "µM"}, {"measurement": "Selectivity Index", "setting": "[7]; CC50/EC50", "result": 18}, {"measurement": "EC50", "setting": "[7]; Hepatitis C virus, read-out: EC50", "result": "8.9 ± 0.7", "unit": "µM"}, {"measurement": "EC90", "setting": "[7]; Hepatitis C virus, read-out: EC90", "result": "79 ± 8.2", "unit": "µM"}, {"measurement": "CC50 at 3 day", "setting": "[8]", "result": "164 ± 18", "unit": "µM"}, {"measurement": "MIC50", "setting": "B. fragilis group", "result": "> 32", "unit": "µg/mL"}, {"measurement": "MIC90", "setting": "B. fragilis group", "result": "> 32", "unit": "µg/mL"}, {"measurement": "MIC50", "setting": "Prevotella/Porphyromonas", "result": "> 32", "unit": "µg/mL"}, {"measurement": "MIC90", "setting": "Prevotella/Porphyromonas", "result": "> 32", "unit": "µg/mL"}, {"measurement": "MIC50", "setting": "fusobacteria", "result": "> 32", "unit": "µg/mL"}, {"measurement": "MIC90", "setting": "fusobacteria", "result": "> 32", "unit": "µg/mL"}, {"measurement": "MIC50", "setting": "[9]", "result": "> 32", "unit": "µg/mL"}, {"measurement": "MIC90", "setting": "[9]", "result": "> 32", "unit": "µg/mL"}, {"measurement": "MIC50", "setting": "[10]", "result": "> 32", "unit": "µg/mL"}, {"measurement": "MIC90", "setting": "[10]", "result": "> 32", "unit": "µg/mL"}, {"measurement": "MIC50", "setting": "clostridia; read-out: MIC50", "result": "> 32", "unit": "µg/mL"}, {"measurement": "MIC90", "setting": "clostridia; read-out: MIC90", "result": "> 32", "unit": "µg/mL"}, {"measurement": "MIC50", "setting": "[11]; [12]", "result": "> 32", "unit": "µg/mL"}, {"measurement": "MIC90", "setting": "[11]; [12]", "result": "> 32", "unit": "µg/mL"}, {"measurement": "Activity against anaerobic bacteria groups (summary in words)", "setting": "[11]; summary of MIC results", "result": "without significant activity"}]}, {"compound": "∝ - Interferon", "values": [{"measurement": "EC50", "setting": "[7]; values for interferon", "result": "2.2 ± 0.2", "unit": "IU/ml"}, {"measurement": "EC90", "setting": "[7]; values for interferon", "result": "8.5 ± 0.6", "unit": "IU/ml"}, {"measurement": "CC50", "setting": "AVA5 cells", "result": ">10,000*^§ IU/ml"}]}]}
